From publication PMC4685510, “A Cell Biologist’s Field Guide to Aurora Kinase Inhibitors” (Frontiers in Oncology, 2015)
Entries after “also recorded” stand apart in the source; their conditions may differ. Read-outs that look alike come from different tables or passages of the source. Each block holds one compound with its values, some of them ahead of it.

Legend:
[1] = tested on: U2OS cells; experiment: G2 duration live imaging assay (GFP-PCNA; H2B-RFP), U2OS; assay type: cell-based; settings: Homo sapiens, read-out: G2/M (G2 duration) IC50
[2] = tested on: RPE1 cells; experiment: G2 duration live imaging assay (GFP-PCNA; H2B-RFP), RPE1; assay type: cell-based; settings: Homo sapiens, RPE-1; RPE1; read-out: G2/M (G2 duration) IC50
[3] = tested on: pLATS2(Ser 83) in U2OS cells; experiment: Substrate phosphorylation immunofluorescence assay, pLATS2(Ser 83), U2OS; assay type: cell-based, human; settings: Homo sapiens, 8 h inhibitor treatment, read-out: pLATS2 (Ser83) IC50
Description: (§1) We employed the protocol described in Figure 3D to analyze substrate phosphorylation in HeLa cells following treatment with all 10 inhibitors in dose–response. Asynchronous cells were incubated with vehicle (DMSO) or different inhibitor doses for 8 h and then fixed and labeled with a mixture of three antibodies directed against pLATS2(Ser 83), pH3(Ser 28), and MPM2 [which detects mitotic phosphoepitopes; ([86])]. While both the anti-pLATS2(Ser 83) and MPM2 antibodies are mouse monoclonals, they are of different IgG subclasses [IgG2b for anti-pLATS2(Ser 83) and IgG1 for MPM2], and can thus be detected with subclass-specific secondary antibodies (Table S3 in Supplementary Material).
(§2) In control mitotic cells, pLATS2(Ser 83) is concentrated in foci around the spindle poles (Figure 3E; top row – green arrow) and pH3(Ser 28) is on the mitotic chromatin (Figure 3E; top row – red arrow). Selective kinase inhibition should result in loss of one signal but not the other, as illustrated by the example images for specific conditions in Figure 3E (middle and bottom rows). Cells were imaged in 4 channels to visualize pLATS2(Ser 83), pH3(Ser 28), MPM2, and DNA (labeled with Hoechst) and mitotic cells were segmented based on their bright MPM2 labeling (Figure 3E). Intensity and area thresholds were set to select the pLATS2(Ser 83) foci and the pH3(Ser 28)-labeled chromatin in their respective channels in DMSO-treated control cells and the same thresholds were applied for inhibitor-treated cells. The mean fluorescence intensity per pixel was measured to assess the activities of the kinases targeting these two substrate phosphorylation sites.
(§3) Twelve thousand HeLa cells, 10,000 U2OS cells, or 8,000 RPE1 cells were seeded into 96-well glass-bottom Sensoplates (Greiner) 16 h before inhibitor addition. Prior to seeding, the glass-bottom plates were coated with poly-L-lysine (Sigma). […] After 8 h cells were fixed with 4% PFA for 20 min at room temperature. The fixed cells were washed with PBS. For immunostaining, cells were permeabilized and blocked with PBS containing 10% normal donkey serum (Jackson ImmunoResearch) and 0.1% Triton-X100 for 1 h at room temperature. Primary antibodies against phospho-LATS2 (Ser 83), phospho-histone H3(Ser 28), and anti-phospho-MPM2 (see Table S3 in Supplementary Material) were incubated for 1 h at room temperature. […] Cells were then washed twice with PBS containing 0.1% Triton-X100. Image acquisition in four channels was performed using a CV7000 spinning disk confocal system (Yokogawa Electric Corporation) with a 40 × 0.95 NA U-PlanApo objective and 2560 × 2160 pixel sCMOS camera. […] Fifty fields per well were imaged with quadruplicate wells for each condition. Image analysis was done using the CV7000 image analysis software (Yokogawa Electric Corporation). Between 100 and 1,000 mitotic cells per condition were segmented applying object identification parameters to select for bright MPM2 labeling. Using a nuclear identifier protocol, minimum intensity thresholds were set for pLATS2(Ser 83) and the pH3(Ser 28) signals, and the resulting identified objects were eroded, dilated, and filtered for size by user-defined thresholds. For only the MPM2-positive mitotic cells, the mean fluorescence intensity of the identified pLATS2(Ser 83) and pH3(Ser 28) objects was measured, and the average intensity per cell per well was calculated. The same thresholds were applied for all of the inhibitor-treated samples, which were processed, imaged, and analyzed in parallel with control DMSO-treated cells. Data were fit using a four-parameter, variable slope fit in Prism (GraphPad). Primary and secondary antibody dilutions can be found in Table S3 in Supplementary Material.

[4] = tested on: pH3(Ser 28) in HeLa cells; experiment: Substrate phosphorylation immunofluorescence assay, pH3(Ser 28), HeLa; assay type: cell-based, human; settings: for IC50: Homo sapiens, 8 h, 8 h inhibitor treatment, read-out: pHistone H3 (Ser28) IC50
Description: (§4) After 8 h cells were fixed with 4% PFA for 20 min at room temperature. The fixed cells were washed with PBS. For immunostaining, cells were permeabilized and blocked with PBS containing 10% normal donkey serum (Jackson ImmunoResearch) and 0.1% Triton-X100 for 1 h at room temperature. Primary antibodies against phospho-LATS2 (Ser 83), phospho-histone H3(Ser 28), and anti-phospho-MPM2 (see Table S3 in Supplementary Material) were incubated for 1 h at room temperature. […] Cells were then washed twice with PBS containing 0.1% Triton-X100. […] Fifty fields per well were imaged with quadruplicate wells for each condition. Image analysis was done using the CV7000 image analysis software (Yokogawa Electric Corporation). Between 100 and 1,000 mitotic cells per condition were segmented applying object identification parameters to select for bright MPM2 labeling. Using a nuclear identifier protocol, minimum intensity thresholds were set for pLATS2(Ser 83) and the pH3(Ser 28) signals, and the resulting identified objects were eroded, dilated, and filtered for size by user-defined thresholds. […] The same thresholds were applied for all of the inhibitor-treated samples, which were processed, imaged, and analyzed in parallel with control DMSO-treated cells. Data were fit using a four-parameter, variable slope fit in Prism (GraphPad).

[5] = tested on: pH3(Ser 28) in RPE1 cells; experiment: Substrate phosphorylation immunofluorescence assay, pH3(Ser 28), RPE1; assay type: cell-based, human; settings: Homo sapiens, RPE-1; RPE1; 8 h inhibitor treatment; read-out: pHistone H3 (Ser28) IC50
Description: as §4

[6] = tested on: pLATS2(Ser 83) in RPE1 cells; experiment: Substrate phosphorylation immunofluorescence assay, pLATS2(Ser 83), RPE1; assay type: cell-based, human; settings: Homo sapiens, RPE-1; RPE1; 8 h inhibitor treatment; read-out: pLATS2 (Ser83) IC50
Description: as §1, §2, §3

[7] = tested on: pLATS2(Ser 83) in HeLa cells; experiment: Substrate phosphorylation immunofluorescence assay, pLATS2(Ser 83), HeLa; assay type: cell-based, human; settings: HeLa
Description: as §1, §2, §3

[8] = tested on: HeLa cells; experiment: G2 duration live imaging assay (GFP-PCNA; H2B-RFP), HeLa; assay type: cell-based, human; settings: Homo sapiens, read-out: G2/M (G2 duration) IC50
[9] = tested on: pH3(Ser 28) in U2OS cells; experiment: Substrate phosphorylation immunofluorescence assay, pH3(Ser 28), U2OS; assay type: cell-based, human; settings: Homo sapiens, 8 h inhibitor treatment, read-out: pHistone H3 (Ser28) IC50
Description: as §4

[10] = tested on: HeLa cells; experiment: Cytokinesis assay (live imaging, YFP-α-tubulin; H2B-RFP), HeLa; assay type: cell-based, human; settings: for IC50: Homo sapiens, HeLa, cytokinesis failure, read-out: Cytokinesis IC50
[11] = tested on: Aurora A-TPX2; settings: ref 121; read-out: Aurora A-TPX2 IC50 (Published); cited from earlier work
[12] = tested on: RPE1 cells; experiment: Cytokinesis assay (live imaging, YFP-α-tubulin; H2B-RFP), RPE1; assay type: cell-based; settings: Homo sapiens, RPE-1; RPE1; cytokinesis failure; read-out: Cytokinesis IC50
[13] = tested on: U2OS cells; experiment: Cytokinesis assay (live imaging, YFP-α-tubulin; H2B-RFP), U2OS; assay type: cell-based; settings: Homo sapiens, cytokinesis failure, read-out: Cytokinesis IC50
[14] = molecular target: T1, Aurora B/INCENP^783–918 (Homo sapiens, UniProt Q96GD4); experiment: Aurora B/INCENP^783–918 kinase assay (ADP-Glo); assay type: biochemical
T1 construct: purchased SignalChem

[15] = molecular target: T2, full-length human Aurora A (Homo sapiens, UniProt O14965); experiment: Aurora A kinase assay (ADP-Glo, Kemptide substrate); settings: Aurora A Ki Mean ± SD, [ATP] = Km(ATP) (35 μM); Ki calculated from IC50 with tight-binding equation
T2 sequence (O14965 1-403): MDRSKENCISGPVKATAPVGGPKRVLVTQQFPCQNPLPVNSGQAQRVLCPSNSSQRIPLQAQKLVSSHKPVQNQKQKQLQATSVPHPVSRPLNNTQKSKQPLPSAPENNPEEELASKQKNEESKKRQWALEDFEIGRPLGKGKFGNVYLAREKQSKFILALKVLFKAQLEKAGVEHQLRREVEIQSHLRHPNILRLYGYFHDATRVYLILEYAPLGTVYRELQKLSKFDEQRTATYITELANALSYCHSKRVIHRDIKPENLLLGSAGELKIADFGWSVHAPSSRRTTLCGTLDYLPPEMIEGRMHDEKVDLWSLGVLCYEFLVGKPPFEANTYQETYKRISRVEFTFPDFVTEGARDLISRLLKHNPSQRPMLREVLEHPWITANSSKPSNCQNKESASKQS

[16] = molecular target: T3, Aurora A/TPX2^1–43 (Homo sapiens, UniProt O14965); experiment: Aurora A/TPX2^1–43 kinase assay (ADP-Glo); settings: Aurora A-TPX2^1–43 Ki Mean ± SD, [ATP] = Km(ATP) (3 μM); 40 nM TPX2^1–43
T3 sequence (O14965 1-403): T2 sequence (O14965 1-403)
T3 sequence (Q9ULW0 1-43 partner limits assumed): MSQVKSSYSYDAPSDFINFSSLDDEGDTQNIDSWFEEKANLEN

[17] = tested on: Aurora B; settings: read-out: Aurora B IC50 (Published), cited from earlier work
[18] = fold difference in potency calculated by dividing Ki values, for GSK1070916 the Aurora B Ki of ref 61 was used

T1 sequence (Q96GD4 whole entry): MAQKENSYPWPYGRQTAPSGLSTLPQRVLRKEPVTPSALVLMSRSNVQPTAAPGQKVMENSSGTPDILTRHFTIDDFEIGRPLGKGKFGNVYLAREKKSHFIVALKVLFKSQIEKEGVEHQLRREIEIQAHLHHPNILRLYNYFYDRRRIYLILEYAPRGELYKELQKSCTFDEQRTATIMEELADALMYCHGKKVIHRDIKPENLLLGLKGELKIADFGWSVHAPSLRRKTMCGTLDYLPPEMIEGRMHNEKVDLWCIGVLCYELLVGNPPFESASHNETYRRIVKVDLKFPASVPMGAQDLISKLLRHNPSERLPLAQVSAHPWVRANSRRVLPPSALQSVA
T1 sequence (Q9NQS7 783-918 partner limits assumed): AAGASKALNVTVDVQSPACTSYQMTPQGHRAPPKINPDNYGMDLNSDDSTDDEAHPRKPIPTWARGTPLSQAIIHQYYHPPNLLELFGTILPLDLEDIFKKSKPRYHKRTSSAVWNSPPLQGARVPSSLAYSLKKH

SMILES: COc1cc(Nc2ncc3c(n2)-c2ccc(Cl)cc2C(c2c(F)cccc2OC)=NC3)ccc1C(=O)O [MLN8237]
- IC50 [1]: 157 nM
- IC50 [2]: 115 nM
- IC50 [3]: 92 nM
- IC50 [4]: 160 nM
- IC50 [5]: 130 nM
- IC50 [6]: 130 nM
- Specificity window (pLATS2(Ser 83) versus pH3(Ser 28)) [7]: 4 fold
- IC50 ([7]; Homo sapiens, 8 h, 8 h inhibitor treatment, read-out: pLATS2 (Ser83) IC50): 37 nM
- IC50 [8]: 128 nM
- IC50 [9]: 210 nM

- IC50 [10]: 615 nM
- IC50 [4]: 410 nM
- IC50 [13]: 613 nM
- pLATS2 (Ser83) IC50 ([7]; 8 h inhibitor treatment): NE (3 μM); also recorded: NE@3 μM
SMILES: COc1cc2c(Nc3ccc(NC(=O)c4ccccc4)cc3)ncnc2cc1OCCCN1CCOCC1 [ZM447439]
- IC50 [11]: 360 nM
- IC50 [12]: 1320 nM

- IC50 [10]: 14 nM
- IC50 [4]: 14 nM
- Ki ([14]; Aurora B-INCENP^783–918 Ki Mean ± SD, [ATP] = Km(ATP) (10 μM)): 0.03 ± 0.014 nM
- Selectivity ratio Aur B-INCENP^783–918 versus Aur A [14, 18]: 40.2 fold
- Selectivity ratio Aur B-INCENP^783–918 versus Aur A-TPX2^1–43 [14, 18]: 45.3 fold
- Ki [15]: 1.21 ± 0.14 nM
- IC50 [13]: 17 nM
- Ki [16]: 1.37 ± 0.12 nM
- pLATS2 (Ser83) IC50 ([7]; 8 h inhibitor treatment): NE (100 nM); also recorded: NE@100 nM
SMILES: CCS(=O)(=O)Nc1ccc2c(c1)/C(=C(/Nc1ccc(CN3CCCCC3)cc1)c1ccccc1)C(=O)N2 [Hesperadin]
- Stability under long-term live imaging conditions ([10]; ability to block cytokesis over time in live imaging, cell line not specified): appeared to be unstable under live imaging conditions; also recorded: appears to be unstable under long-term live imaging conditions
- IC50 [11]: 11 nM
- IC50 [12]: 47 nM
- Concentration completely eliminating pH3(Ser 28) labeling without affecting pLATS2(Ser 83) labeling [4]: < 100 nM
- IC50 ([17]; ref 45): 250 nM
- IC50 ([17]; ref 121): 3 nM
